Measured values: a melting point compilation (Tetko et al.)

Compound	melting point
CC(C)C(O)(C(=O)O)c1ccccc1 (configuration not stated)	148 to 150 °C
O=C(O)C(Oc1ccc(Cl)cc1Br)c1ccccc1 (configuration not stated)	135 to 137 °C
CCOC(=O)c1cc(-c2ccccc2)ccc1N	59 to 61 °C
Cc1onc(-c2ccncc2)c1C(=O)O	249 to 251 °C
CCCOc1ccc2[nH]cc(C=O)c2c1	139 to 141 °C
O=C1NC(=O)N2CCCC12 (configuration not stated)	149 to 151 °C
Cc1cc(C(N)=S)ccc1F	89 to 91 °C
CC(=O)c1ccccc1NS(=O)(=O)c1ccc(C)cc1	148 to 150 °C
Cc1ccc2c(CCN)c[nH]c2c1	139 to 141 °C
CC(=O)NC1(C(=O)O)CCC(C)CC1 (configuration not stated)	211 to 213 °C
CC(C)C(=O)c1ccc(S(=O)(=O)Cl)cc1	64 to 66 °C
COC(=O)c1c(S)nc2ccccc2c1O	179 to 181 °C
CN(CC(=O)O)S(=O)(=O)c1ccc(Br)cc1	179 to 181 °C
CC(C)(C)c1csc(-c2ccc(O)cc2)n1	228 to 230 °C
O=C(O)c1ccc2c(c1)COC2	164 to 166 °C
Nc1cc(-c2cccc(Br)c2)no1	122 to 124 °C
COC(=O)Cc1cc(O)n[nH]1	143 to 145 °C
COc1ccc(N)cc1-n1nnnc1C1CC1	161 to 163 °C
O=C(O)c1cc(-c2ccc(F)cc2)nc2onc(C3CC3)c12	229 to 231 °C
COCCn1cc(C(=O)O)ccc1=O	185 to 187 °C
CNC(=O)NC1(C(=O)O)CCCC1	165 to 167 °C
CN1CC(=O)N(c2cccc(N)c2)C1=O	131 to 133 °C
O=S(=O)(c1ccc(Cl)cc1)N1CCNCC1	99 to 103 °C
CSc1nc(C(=O)O)cc(C2CC2)n1	135 to 137 °C

Compound	melting point
CCc1ccc(C(=O)O)s1	60 to 62 °C
O=c1[nH]c(CNCc2ccccc2)nc2ccccc12	139 to 141 °C
CC(C)(C)OC(=O)NCCOc1cccc(N)c1	65 to 67 °C
Clc1nccc(N2CCOCC2)n1	111 to 113 °C
CCC(CC)c1nnc(N)s1	158 to 160 °C
O=C(O)c1cccc(-n2cccn2)n1	184 to 186 °C
Cc1ccc(-n2nc(N)cc2C)cc1	99 to 101 °C
Nc1nc2cc(Cc3ccccc3)ccc2o1	151 to 153 °C
CCC(C)c1csc(NC)n1 (configuration not stated)	49 to 51 °C
O=C(O)COc1ccc(Cl)cc1C1CCCCC1	167 to 169 °C
Cc1nn(CC(F)(F)F)cc1C(=O)O	119 to 121 °C
NC(=O)Cc1cccc(O)c1	114 to 116 °C
Cn1cc(NS(=O)(=O)c2ccsc2C(=O)O)cn1	239 to 241 °C
COc1ccccc1NCC(=O)NN	103 to 105 °C
O=C(O)C=Cc1cn(-c2ccccc2)nc1-c1ccc(F)cc1	229 to 231 °C
CC(NC(=O)C(Br)C(C)C)c1ccccc1 (configuration not stated)	73 to 75 °C
CC(=O)Oc1ccc(-c2ccc(C(=O)O)cc2)cc1	275 to 277 °C
COc1ccc(C(N)Cc2ccc(F)cc2)cc1 (configuration not stated)	47 to 49 °C
O=C(O)c1cc2c(F)ccc(F)c2[nH]1	229 to 231 °C
Brc1ccc(-c2nccs2)cc1	45 to 47 °C
O=C(O)c1n[nH]c2c1CCC2	287 to 289 °C
NC1(C(=O)O)CCCSC1 (configuration not stated)	208 to 210 °C
N#CC(N)c1ccc(Cl)cc1Cl (configuration not stated)	80 to 82 °C
NCc1ccc(N2CCN(c3ccccc3)CC2)nc1	111 to 113 °C

Compound	melting point
COC(=O)NC(=O)CCl	147 to 151 °C
Nc1cc(-c2ccc(I)cc2)[nH]n1	186 to 188 °C
CC(C)Sc1ccc(C(=O)O)cc1	139 to 141 °C
Cn1cc(C(=O)NC2CCNCC2)cn1	204 to 206 °C
CNC(=O)c1ccc(C=O)cc1	152 to 154 °C
CCc1ccccc1NC(=O)CCl	106 to 108 °C
O=C(O)c1nc(C2CC2)n(-c2ccccc2Cl)n1	162 to 164 °C
NC(=O)N1CC=C(c2c[nH]c3ccccc23)CC1	199 to 201 °C
NNC(=O)C(F)(F)Oc1ccccc1	76 to 78 °C
CN(C(=O)c1ccccc1C(=O)O)C1CCCCC1	144 to 146 °C
Brc1cnc2nccn2c1	201 to 203 °C
O=C(CCl)NCCOc1cccc(C(F)(F)F)c1	43 to 45 °C
CC(=O)c1cccc(NC(=O)OCC(F)(F)F)c1	135 to 137 °C
Cn1cc(Nc2cccc(N)c2)cn1	92 to 94 °C
O=C1CCCCC1n1ccc([N+](=O)[O-])n1 (configuration not stated)	128 to 130 °C
COc1ccc(C(N)CN2CCN(C)CC2)cc1 (configuration not stated)	82 to 84 °C
CCOc1cc(Cl)ccc1C(=O)O	119 to 121 °C
CC(C)(C)Oc1c(F)cc(N)cc1F	99 to 101 °C
N#CCCC(=O)c1cccnc1	71 to 73 °C
c1ccc2oc(-c3ccncc3)cc2c1	73 to 75 °C
O=C(CCl)Nc1cccc(Oc2ccccc2)c1	102 to 104 °C
N#Cc1cc(C(N)=O)c[nH]1	245 to 247 °C
O=C(O)C1CSC(c2cccs2)N1 (configuration not stated)	148 to 150 °C
O=C1CC2CCCC(C1)N2Cc1ccccc1	66 to 68 °C
